Laboratory results as given in patent publication EP1509215B1, “TREATMENT OR PREVENTION OF UROGENITAL ATROPHY AND ITS SYMPTOMS IN WOMEN” (Hormos Medical Ltd., priority 2002, dated 2003).

Tests used:
vaginal epithelium = test: Cervical smear: maturity index / karyopyknosis index of the vaginal epithelium, clinical phase I-II study; details: for Change in maturity index for superficial cells (MI3 mean) / Change in maturity index for parabasal cells (MI1 mean): after 3 months; for Change in maturity index for superficial cells (MI3 mean): index 100 full estrogen, index 0 no estrogenicity; for Change in maturity index for parabasal cells (MI1 mean): index 100 no estrogenicity, index 0 full estrogen; for increase in the karyopyknosis index for superficial cells: 12 weeks; for change from baseline to post-treatment in the karyopyknosis index for superficial cells: individuals, start to 12 weeks, ospemifene 30, 60, 90 mg daily, raloxifene 60 mg daily, result in words
Method: Tolerability and pharmacokinetics were also assessed. Raloxifene (60 mg daily) was used as reference. Ospemifene was given perorally at the doses of 30, 60 and 90 mg daily. There were 29 volunteers at each dose level, as well as in the raloxifene group. Ospemifene was administered in gelatine capsules containing either 30, 60 or 90 mg of ospemifene. […] The vaginal epithelium was assessed by karyopyknosis index which is a well known assessment method among the skilled persons. In this method, the vaginal fraction of the cervical smears is estimated as the percentage of the number of cells from different layers: the parabasal cell layer; the intermediate cell layer; and the superficial cell layer. Estrogenicity is seen by a shift towards superficial cell fraction. In postmenopausal women this fraction usually is close to zero and estradiol treatment increases the fraction close to 100. Samples were taken before and after the treatment (at 3 months).
Table 1. […] (MI 1: index 100 no estrogenicity; index 0 full estrogen, and MI 3: index 100 full estrogen; index 0 no estrogenicity).

endometrium [1] = test: Thickness of the endometrium by ultrasonography, clinical phase I-II study; format: in vivo, healthy postmenopausal female volunteers; details: for increase in the thickness of the endometrium (average): 3 months, statistically not significant
Method: (§1) A clinical phase I-II study was carried out to study the effects of ospemifene on endometrial thickness, endometrial pathology, (biopsy taken by curettage as described by Vuopala et al, 1982) and cervical smear in healthy postmenopausal female volunteers in the age range 55 to 69 years. Tolerability and pharmacokinetics were also assessed. Raloxifene (60 mg daily) was used as reference. Ospemifene was given perorally at the doses of 30, 60 and 90 mg daily. […] Ospemifene was administered in gelatine capsules containing either 30, 60 or 90 mg of ospemifene.
(§2) This effect is clearly weaker than that seen with estrogen replacement therapy. […] The measured values were always smaller than 8 mm, which is considered to be a thickness which is indicative for a physiologically significant estrogenicity of SERMs like tamoxifen (Hann et al, 1997; Lahti et al, 1993).

endometrium [2] = test: Endometrial histology (biopsy taken by curettage), clinical phase I-II study; format: in vivo, healthy postmenopausal female volunteers; details: 30, 60, 90 mg daily, 3 months
Method: as §1, §2

[3] = Tolerability in the clinical studies; format: in vivo, posmenopausal women
Method: as §1
Based on the present data, the optimal clinical dose is expected to be higher than 25 mg daily and lower than 100 mg daily. A particularly preferable daily dose is found in the range 30 to 90 mg. […] In addition, ospemifene decreases total and LDL cholesterol, increases HDL cholesterol, and prevents osteoporosis and early stage breast cancer.

Method for urogenital atrophy: In this study, raloxifene (60 mg/day) or ospemifene at different doses were given to elderly female volunteers for a period of 3 months.
77 were treated with 25-30 mg, 78 with 50-60 mg, 78 with 90-100 mg and 8 with 200 mg daily dose of ospemifene. In the control groups, 47 were treated with placebo and 29 with raloxifene. […] The symptoms include both vaginal and urinary symptoms such as vaginal discomfort with irritation, itching, burning, smarting, postcoital bleeding, vulvar itching and/or malodorous discharge and leukorrhea.

Row | Compound | Change in maturity index for superficial cells (MI3 mean) (vaginal epithelium; 30 mg daily perorally) | Change in maturity index for parabasal cells (MI1 mean) (vaginal epithelium; 30 mg daily perorally) | Change in maturity index for superficial cells (MI3 mean) (vaginal epithelium; 60 mg daily perorally) | Change in maturity index for parabasal cells (MI1 mean) (vaginal epithelium; 60 mg daily perorally) | Change in maturity index for superficial cells (MI3 mean) (vaginal epithelium; 90 mg daily perorally) | Change in maturity index for parabasal cells (MI1 mean) (vaginal epithelium; 90 mg daily perorally) | estrogenic effect in the cervical smear (vaginal epithelium; 30, 60, 90 mg daily, 3 months) | pathological changes in cervical smear samples (vaginal epithelium; 30, 60, 90 mg daily, 3 months) | increase in the karyopyknosis index for superficial cells (vaginal epithelium; individual cases, all ospemifene groups (30, 60, 90 mg daily), all cases except one) | change from baseline to post-treatment in the karyopyknosis index for superficial cells (vaginal epithelium) | increase in the karyopyknosis index for superficial cells (vaginal epithelium; one case in the 90 mg group) | increase in the thickness of the endometrium (average) (endometrium [1]; 30 mg daily) [mm] | increase in the thickness of the endometrium (average) (endometrium [1]; 60 mg daily) [mm] | increase in the thickness of the endometrium (average) (endometrium [1]; 90 mg daily) [mm] | thickness of the endometrium, measured values (endometrium [1]; all measured values, 30, 60, 90 mg daily) | malignant findings in the endometrium (endometrium [2]) | estrogenic effect on endometrial histology (endometrium [2]; clearly weaker than with estrogen replacement therapy) | tolerability [3] | vaginal atrophy (urogenital atrophy; 30, 60 and 90 mg daily, 3 months, elderly female volunteers) | symptoms associated with urogenital atrophy (vaginal and urinary) (urogenital atrophy; spontaneous reports of some subjects, 25-200 mg daily, 241 women treated)
1 | OCCOc1ccc(/C(=C(/CCCl)c2ccccc2)c2ccccc2)cc1 [Ospemifene, (deaminohydroxy)toremifene] | +12.4 | -40 | +5.5 | -26 | +12.5 | -48 | weak but statistically significant estrogenic effect | No pathological changes | < 40 | slight increases | 45 | 0.2 | 0.5 | 0.5 | smaller than 8 mm | no malignant findings | weak estrogenic effect | excellent tolerability | significant decrease in vaginal atrophy | alleviation of the symptoms associated with urogenital atrophy
2 | O=C(c1ccc(OCCN2CCCCC2)cc1)c1c(-c2ccc(O)cc2)sc2cc(O)ccc12 [Raloxifene, reference compound] | – | – | -0.3 | -2 | – | – | – | – | – | no one in the raloxifene group (Fig. 1D) had a significant change | – | – | – | – | – | – | – | – | – | –
